Experimental data published in ChEMBL document CHEMBL3351714 (Bioorg Med Chem, 2014).

Tests used:
D(2) dopamine receptor [1] = biological target: T1, D(2) dopamine receptor (Homo sapiens, UniProt P14416); assay: Displacement of [3H]Spiperone from D2 receptor (unknown origin) transfected in HEK293T cells at 10 uM after 50 mins by liquid scintillation counting analysis; format: cell-based; conditions: HEK-293T
D(2) dopamine receptor [2] = biological target: T1, D(2) dopamine receptor; assay: Displacement of [3H]Spiperone from D2 receptor (unknown origin) transfected in HEK293T cells after 50 mins by liquid scintillation counting analysis; format: cell-based, HEK-293T
[3] = biological target: 5-hydroxytryptamine receptor 2A (Homo sapiens) (UniProt P28223); assay: Displacement of [3H]Ketanserin from 5HT2A receptor (unknown origin) transfected in HEK293T cells at 10 uM after 15 mins by liquid scintillation counting analysis; format: cell-based; conditions: HEK-293T
D(1A) dopamine receptor [4] = biological target: T2, D(1A) dopamine receptor (Homo sapiens, UniProt P21728); assay: Displacement of [3H]SCH23390 from D1 receptor (unknown origin) transfected in HEK293T cells at 10 uM after 50 mins by liquid scintillation counting analysis; format: cell-based; conditions: HEK-293T
[5] = biological target: T3, 5-hydroxytryptamine receptor 1A (Homo sapiens) (UniProt P08908); assay: Displacement of [3H]8-OH-DPAT from 5HT1A receptor (unknown origin) transfected in HEK293T cells at 10 uM after 50 mins by liquid scintillation counting analysis; format: cell-based; conditions: HEK-293T
T3 sequence (whole entry): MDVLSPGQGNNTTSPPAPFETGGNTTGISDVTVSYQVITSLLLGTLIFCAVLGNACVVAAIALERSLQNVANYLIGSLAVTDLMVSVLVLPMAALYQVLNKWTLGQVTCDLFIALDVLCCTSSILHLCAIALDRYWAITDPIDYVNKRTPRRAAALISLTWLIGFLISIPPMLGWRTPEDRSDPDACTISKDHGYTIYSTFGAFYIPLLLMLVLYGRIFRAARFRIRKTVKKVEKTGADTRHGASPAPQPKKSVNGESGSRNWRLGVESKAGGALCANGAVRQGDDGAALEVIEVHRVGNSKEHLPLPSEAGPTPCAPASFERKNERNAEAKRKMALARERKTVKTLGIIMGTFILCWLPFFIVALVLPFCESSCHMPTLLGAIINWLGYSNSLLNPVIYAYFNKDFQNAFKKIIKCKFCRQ

D(1A) dopamine receptor [6] = biological target: T2, D(1A) dopamine receptor; assay: Displacement of [3H]SCH23390 from D1 receptor (unknown origin) transfected in HEK293T cells after 50 mins by liquid scintillation counting analysis; format: cell-based, HEK-293T
D(3) dopamine receptor = D(3) dopamine receptor (Homo sapiens, UniProt P35462); assay: Displacement of [3H]Spiperone from D3 receptor (unknown origin) transfected in HEK293T cells after 50 mins by liquid scintillation counting analysis; format: cell-based, HEK-293T
D(1A) dopamine receptor [7] = biological target: T2, D(1A) dopamine receptor; assay: Antagonist activity at D1 receptor (unknown origin) after 40 mins by [35S]GTP-gammaS binding assay in presence of SKF38393; format: functional
D(2) dopamine receptor [8] = biological target: T1, D(2) dopamine receptor; assay: Antagonist activity at D2 receptor (unknown origin) after 40 mins by [35S]GTP-gammaS binding assay in presence of quinpirole; format: functional
[9] = biological target: T4, 5-hydroxytryptamine receptor 1A (Homo sapiens, UniProt P08908); assay: Agonist activity at 5HT1A receptor (unknown origin) after 20 mins by [35S]GTP-gammaS binding assay; format: functional
T4 sequence (P08908 whole entry): T3 sequence (whole entry)

[10] = biological target: T4, 5-hydroxytryptamine receptor 1A; assay: Displacement of [3H]8-OH-DPAT from 5HT1A receptor (unknown origin) transfected in HEK293T cells after 50 mins by liquid scintillation counting analysis; format: cell-based, HEK-293T
D(1A) dopamine receptor [11] = biological target: T2, D(1A) dopamine receptor; assay: Agonist activity at D1 receptor (unknown origin) after 40 mins by [35S]GTP-gammaS binding assay; format: functional

T1 sequence (P14416 whole entry): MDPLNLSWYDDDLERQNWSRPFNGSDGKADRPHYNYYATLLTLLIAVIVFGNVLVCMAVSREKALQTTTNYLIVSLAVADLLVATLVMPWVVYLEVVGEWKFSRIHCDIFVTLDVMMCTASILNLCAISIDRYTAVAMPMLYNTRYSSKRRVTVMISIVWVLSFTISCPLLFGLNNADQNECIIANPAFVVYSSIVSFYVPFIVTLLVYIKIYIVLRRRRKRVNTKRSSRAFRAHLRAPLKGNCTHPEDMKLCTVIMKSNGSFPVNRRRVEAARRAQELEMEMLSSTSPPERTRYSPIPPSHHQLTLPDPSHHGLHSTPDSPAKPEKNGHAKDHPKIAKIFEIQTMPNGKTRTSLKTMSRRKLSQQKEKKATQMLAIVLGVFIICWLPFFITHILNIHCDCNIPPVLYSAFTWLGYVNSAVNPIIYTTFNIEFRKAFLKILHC
D(3) dopamine receptor, sequence (P35462 whole entry): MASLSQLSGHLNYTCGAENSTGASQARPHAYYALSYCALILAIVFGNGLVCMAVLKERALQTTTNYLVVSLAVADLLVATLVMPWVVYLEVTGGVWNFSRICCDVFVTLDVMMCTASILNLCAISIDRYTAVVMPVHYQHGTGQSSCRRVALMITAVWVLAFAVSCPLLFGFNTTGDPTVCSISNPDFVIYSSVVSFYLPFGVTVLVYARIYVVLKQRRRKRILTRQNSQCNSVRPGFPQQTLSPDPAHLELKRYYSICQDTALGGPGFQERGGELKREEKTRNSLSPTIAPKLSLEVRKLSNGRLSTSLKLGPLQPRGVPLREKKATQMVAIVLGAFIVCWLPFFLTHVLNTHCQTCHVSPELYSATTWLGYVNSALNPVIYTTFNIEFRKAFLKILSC
5-hydroxytryptamine receptor 2A (Homo sapiens), sequence (P28223 whole entry): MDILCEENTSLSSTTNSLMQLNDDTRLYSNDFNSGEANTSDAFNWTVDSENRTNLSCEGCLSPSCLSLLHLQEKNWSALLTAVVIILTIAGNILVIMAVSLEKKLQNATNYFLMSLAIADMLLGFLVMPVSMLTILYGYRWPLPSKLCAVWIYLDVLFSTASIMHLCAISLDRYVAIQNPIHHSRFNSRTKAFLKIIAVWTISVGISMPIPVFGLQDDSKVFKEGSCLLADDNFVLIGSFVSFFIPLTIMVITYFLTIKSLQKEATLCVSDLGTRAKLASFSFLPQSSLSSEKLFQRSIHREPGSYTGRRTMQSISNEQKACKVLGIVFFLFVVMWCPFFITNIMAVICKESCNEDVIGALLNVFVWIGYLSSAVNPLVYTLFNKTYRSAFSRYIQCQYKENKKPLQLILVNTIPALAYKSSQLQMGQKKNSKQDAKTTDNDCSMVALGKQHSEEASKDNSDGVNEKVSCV
T2 sequence (P21728 whole entry): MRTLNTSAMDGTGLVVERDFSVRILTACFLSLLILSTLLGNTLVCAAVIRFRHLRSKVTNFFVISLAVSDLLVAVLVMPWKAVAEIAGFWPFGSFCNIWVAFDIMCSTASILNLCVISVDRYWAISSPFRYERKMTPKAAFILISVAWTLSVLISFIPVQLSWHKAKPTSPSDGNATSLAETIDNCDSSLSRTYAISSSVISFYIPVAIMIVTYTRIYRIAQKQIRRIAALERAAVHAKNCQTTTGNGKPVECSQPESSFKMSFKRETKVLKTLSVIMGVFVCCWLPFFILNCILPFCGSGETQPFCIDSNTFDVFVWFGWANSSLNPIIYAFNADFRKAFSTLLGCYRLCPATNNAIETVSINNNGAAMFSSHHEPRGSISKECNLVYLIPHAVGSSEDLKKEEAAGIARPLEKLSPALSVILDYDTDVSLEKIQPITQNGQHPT

SMILES | inhibition (D(2) dopamine receptor [1]) [%] | Ki (D(2) dopamine receptor [2]) [µM] | inhibition [3] [%] | inhibition (D(1A) dopamine receptor [4]) [%] | inhibition [5] [%] | Ki (D(1A) dopamine receptor [6]) [µM] | Ki (D(3) dopamine receptor) [µM] | IC50 (D(1A) dopamine receptor [7]) [µM] | IC50 (D(2) dopamine receptor [8]) [µM] | EC50 [9] [µM] | Ki [10] [µM] | EC50 (D(1A) dopamine receptor [11]) [µM]
CCCc1cc2c(s1)C[C@H]1c3cc(O)c(OC)cc3CCN1C2 | 96.3 | 0.0386 | 29.6 | 98.2 | 85.3 | 0.0617 |  |  |  |  |  | 
CCCCCc1cc2c(s1)C[C@H]1c3cc(O)c(OC)cc3CCN1C2 | 103 | 0.0467 | 45.9 | 94.7 | 81.7 | 0.133 |  |  |  |  |  | 
COc1cc2c(cc1O)[C@@H]1Cc3sc(CCC(C)C)cc3CN1CC2 | 90.5 | 0.0795 | 50.5 | 88.8 | 86.9 |  |  |  |  |  |  | 
COc1cc2c(cc1O)[C@@H]1Cc3sc(CC(C)(C)C)cc3CN1CC2 | 97 | 0.19 | 19.3 | 93.8 | 79.8 | 0.634 |  |  |  |  |  | 
CCc1cc2c(s1)C[C@H]1c3cc(O)c(OC)cc3CCN1C2 | 98.5 | 0.0408 | 45.1 | 98.2 | 92.1 | 0.0263 |  |  |  |  |  | 
COc1cc2c(cc1O)[C@@H]1Cc3ccc(O)c(OC)c3CN1CC2 [STEPHOLIDINE] |  | 0.105 |  |  |  | 0.0123 | 0.09 |  | 4.38 |  |  | 0.023
COc1cc2c(cc1O)[C@@H]1Cc3sc(CCCC(C)C)cc3CN1CC2 | 89 |  | 34.9 | 68.1 | 36.3 |  |  |  |  |  |  | 
COc1cc2c(cc1O)[C@@H]1Cc3sc(CCCl)cc3CN1CC2 | 98.4 | 0.0344 | 34.8 | 96.7 | 90.8 | 0.0164 |  |  |  |  |  | 
COc1cc2c(cc1O)[C@@H]1Cc3sccc3CN1CC2 | 95.8 | 0.088 | 82.3 | 98.1 | 89.7 | 0.087 |  |  |  |  |  | 

The remaining molecules from weak to strong by Ki (D(2) dopamine receptor [2]), led by results:

inhibition (D(2) dopamine receptor [1]) [%] | Ki (D(2) dopamine receptor [2]) [µM] | inhibition [3] [%] | inhibition (D(1A) dopamine receptor [4]) [%] | inhibition [5] [%] | Ki (D(1A) dopamine receptor [6]) [µM] | Ki (D(3) dopamine receptor) [µM] | IC50 (D(1A) dopamine receptor [7]) [µM] | IC50 (D(2) dopamine receptor [8]) [µM] | EC50 [9] [µM] | Ki [10] [µM] | EC50 (D(1A) dopamine receptor [11]) [µM] | SMILES
98.7 | 0.0342 | 44.9 | 97.1 | 93.7 | 0.379 |  |  |  |  | 0.778 |  | COc1cc2c(cc1O)[C@@H]1Cc3sc(CC4CCC4)cc3CN1CC2
102 | 0.0291 | 33.4 | 92 | 69.4 | 0.403 |  |  |  |  |  |  | CCC(C)Cc1cc2c(s1)C[C@H]1c3cc(O)c(OC)cc3CCN1C2 (some centres undefined)
97.2 | 0.0184 | 62.1 | 94.3 | 92.2 | 0.077 |  |  |  |  |  |  | COc1cc2c(cc1O)[C@@H]1Cc3sc(CCCCl)cc3CN1CC2
99.5 | 0.0176 | 53.3 | 98.6 | 90 | 0.0622 | 0.0399 | 0.6 | 0.91 | 0.85 |  |  | CCCCc1cc2c(s1)C[C@H]1c3cc(O)c(OC)cc3CCN1C2
105 | 0.0165 | 52.1 | 91.5 | 91.6 | 0.0458 |  |  |  |  | 0.285 |  | COc1cc2c(cc1O)[C@@H]1Cc3sc(CC(C)Cl)cc3CN1CC2 (some centres undefined)
103 | 0.012 | 39.6 | 91.1 | 91.9 | 0.719 |  |  |  |  | 0.655 |  | COc1cc2c(cc1O)[C@@H]1Cc3sc(CCCCCl)cc3CN1CC2
99 | 0.0115 | 39.3 | 96.8 | 96.1 | 0.0662 |  |  |  |  | 0.175 |  | COc1cc2c(cc1O)[C@@H]1Cc3sc(CC4CC4)cc3CN1CC2
 | 0.00754 | 50.3 | 97.6 | 83.7 | 0.128 | 0.0199 | 2.01 | 0.16 | 0.59 |  |  | COc1cc2c(cc1O)[C@@H]1Cc3sc(CC(C)C)cc3CN1CC2
